Data reported in patent publication US8557796B2, “Substituted 1-oxa-2,8-diaza-spiro [4,5] dec-2-ene derivatives and related treatment methods” (Gruenenthal GmbH, priority 2001, dated 2013).

molecular target: T1, NA transporter (Rattus norvegicus, UniProt Q9WTR4); assay: Noradrenalin uptake inhibition (NA-uptake) in synaptosomes; type: biochemical; conditions: rat hypothalamus synaptosomes
T1 construct: synaptosomes from rat brain regions were freshly isolated; from tissue; host or cells: P2 synaptosome fraction from hypothalamus of male rat brain
T1 sequence (Q9WTR4 1-597): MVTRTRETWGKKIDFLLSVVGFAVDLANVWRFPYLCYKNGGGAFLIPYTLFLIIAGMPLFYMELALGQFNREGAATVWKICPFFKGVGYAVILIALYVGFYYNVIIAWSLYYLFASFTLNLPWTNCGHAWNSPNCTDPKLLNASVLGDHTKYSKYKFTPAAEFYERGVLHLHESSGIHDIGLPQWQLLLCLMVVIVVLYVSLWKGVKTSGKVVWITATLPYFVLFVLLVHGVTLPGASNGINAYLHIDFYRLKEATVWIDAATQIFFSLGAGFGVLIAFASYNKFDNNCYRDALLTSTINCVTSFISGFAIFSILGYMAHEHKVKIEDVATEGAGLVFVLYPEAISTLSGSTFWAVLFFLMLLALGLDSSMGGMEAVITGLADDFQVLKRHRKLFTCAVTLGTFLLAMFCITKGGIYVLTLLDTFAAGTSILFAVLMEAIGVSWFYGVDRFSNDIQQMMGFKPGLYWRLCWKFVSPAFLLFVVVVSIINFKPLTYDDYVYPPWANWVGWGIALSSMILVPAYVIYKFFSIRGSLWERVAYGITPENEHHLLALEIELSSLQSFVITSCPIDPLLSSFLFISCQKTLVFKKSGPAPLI
Text: Tests on Noradrenalin Uptake Inhibition (NA-Uptake Inhibition)
In order to be able to carry out these in vitro studies, synaptosomes from rat brain regions were freshly isolated.

SMILES	NA-uptake, 10 μM, % inhibition	inhibition at 10 µM
O=C(OCc1ccccc1)N1CCN(C(=O)C2=NOC3(CCN(S(=O)(=O)c4ccc(F)cc4)CC3)C2)CC1 [Example 143]	47%	
O=C(NCc1cccs1)C1=NOC2(CCN(C(=O)C=Cc3ccccc3)CC2)C1 [Example 106]	47%	
Cc1ccc(C(C)NC(=O)C2=NOC3(CCN(S(=O)(=O)c4ccc(C)cc4)CC3)C2)cc1 (centres unmarked) [Example 45, 8-(toluene-4-sulphonyl)-1-oxa-2,8-diaza-spiro[4,5]dec-2-ene-3-carboxylic acid (1-p-tolyl-ethyl)-amide]		59%
O=C(NCc1ccccc1)C1=NOC2(CCN(C(=O)COc3cccc(Cl)c3)CC2)C1 [Example 166, 8-[2-(3-chloro-phenoxy)-acetyl]-1-oxa-2,8-diaza-spiro[4,5]dec-2-ene-3-carboxylic acid benzylamide]		53%
O=C(NCc1ccccc1)C1=NOC2(CCN(C(=O)c3ccncc3)CC2)C1 [Example 102, 8-(pyridine-4-carbonyl)-1-oxa-2,8-diaza-spiro[4,5]dec-2-ene-3-carboxylic acid benzylamide]		48%
O=C(NC1CCCC1)C1=NOC2(CCN(C(=O)c3ccccc3COC(=O)c3ccccc3)CC2)C1 [Example 188]	49%	
O=C(C1=NOC2(CCN(S(=O)(=O)c3cc(Cl)ccc3Cl)CC2)C1)N(CCc1ccccc1)Cc1ccccc1 [Example 98, 8-(2,5-dichloro-benzenesulphonyl)-1-oxa-2,8-diaza-spiro[4,5]dec-2-ene-3-carboxylic acid benzyl-phenethyl-amide]		82%
CC(C)CNC(=O)C1=NOC2(CCN(C(=O)c3cccc4ccccc34)CC2)C1 [Example 178, 8-(naphthalene-1-carbonyl)-1-oxa-2,8-diaza-spiro[4,5]dec-2-ene-3-carboxylic acid isobutyl-amide]		51%
O=C(NCc1cccs1)C1=NOC2(CCN(C(=O)c3ccc(SC(F)(F)F)cc3)CC2)C1 [Example 135, 8-(4-trifluoromethylsulphanyl-benzoyl)-1-oxa-2,8-diaza-spiro[4,5]dec-2-ene-3-carboxylic acid (thiophen-2-ylmethyl)-amide]		56%
O=C(NC1CCCC1OCc1ccccc1)C1=NOC2(CCN(S(=O)(=O)Cc3ccccc3)CC2)C1 (centres unmarked) [Example 20, 8-phenylmethanesulphonyl-1-oxa-2,8-diaza-spiro[4,5]dec-2-ene-3-carboxylic acid (2-benzyloxy-cyclopentyl)-amide]		70%
O=C(NCc1cccs1)C1=NOC2(CCN(S(=O)(=O)c3ccc(Cl)cc3)CC2)C1 [Example 127, 8-(4-chloro-benzenesulphonyl)-1-oxa-2,8-diaza-spiro[4,5]dec-2-ene-3-carboxylic acid (thiophen-2-ylmethyl)-amide]		51%
O=C(NCC1CC1)C1=NOC2(CCN(C(=O)c3ccc(C(F)(F)F)cc3)CC2)C1 [Example 107, 8-(4-trifluoromethyl-benzoyl)-1-oxa-2,8-diaza-spiro[4,5]dec-2-ene-3-carboxylic acid cyclopropylmethyl-amide]		42%
COc1ccc(S(=O)(=O)N2CCC3(CC2)CC(C(=O)NC2CC2c2ccccc2)=NO3)cc1 (centres unmarked) [Example 182, 8-(4-methoxy-benzenesulphonyl)-1-oxa-2,8-diaza-spiro[4,5]dec-2-ene-3-carboxylic acid (2-phenyl-cyclopropyl)-amide]		73%
O=C(NCCc1cccc(F)c1)C1=NOC2(CCN(S(=O)(=O)Cc3ccccc3)CC2)C1 [Example 78, 8-phenylmethanesulphonyl-1-oxa-2,8-diaza-spiro[4,5]dec-2-ene-3-carboxylic acid [2-(3-fluorophenyl)-ethyl]-amide]		42%
O=C(NCC1CCCO1)C1=NOC2(CCN(C(=O)c3ccc(F)cc3F)CC2)C1 (centres unmarked) [Example 112]	45%	
O=C(NCc1cccs1)C1=NOC2(CCN(C(=O)c3cccc4ccccc34)CC2)C1 [Example 192, 8-(naphthalene-1-carbonyl)-1-oxa-2,8-diaza-spiro[4,5]dec-2-ene-3-carboxylic acid (thiophen-2-ylmethyl)-amide]		41%
O=C(NCc1ccccc1F)C1=NOC2(CCN(S(=O)(=O)c3ccc(F)cc3)CC2)C1 [Example 207, 8-(4-fluoro-benzenesulphonyl)-1-oxa-2,8-diaza-spiro[4,5]dec-2-ene-3-carboxylic acid 2 fluorobenzylamide]		50%
O=C(NCc1cccs1)C1=NOC2(CCN(C(=O)c3cccc(Cl)c3)CC2)C1 [Example 208]	52%	
O=C(NCC1CC1)C1=NOC2(CCN(C(=O)c3ccc(SC(F)(F)F)cc3)CC2)C1 [Example 108, 8-(4-trifluoromethylsulphanyl-benzoyl)-1-oxa-2,8-diaza-spiro[4,5]dec-2-ene-3-carboxylic acid cyclopropylmethyl-amide]		42%
CN(C)S(=O)(=O)N1CCC2(CC1)CC(C(=O)NC(Cc1ccccc1)C(=O)OC(C)(C)C)=NO2 (centres unmarked) [Example 139, 2-[(8-dimethylsulphamoyl-1-oxa-2,8-diaza-spiro[4,5]dec-2-ene-3-carbonyl)-amino]-3-phenyl-propionic acid tert-butyl ester]		51%
CCSCCNC(=O)C1=NOC2(CCN(S(=O)(=O)CC34CCC(CC3=O)C4(C)C)CC2)C1 (centres unmarked) [Example 111, 8-(7,7-dimethyl-2-oxo-bicyclo[2.2.1]hept-1-ylmethane-sulphonyl)-1-oxa-2,8-diaza-spiro[4,5]dec-2-ene-3-carboxylic acid (2-ethylsulphanyl-ethyl)-amide]		40%
C=C(C)CN(CC)C(=O)C1=NOC2(CCN(S(=O)(=O)c3ccc(OC(F)(F)F)cc3)CC2)C1 [Example 103, 8-(4-trifluoromethoxy-benzenesulphonyl)-1-oxa-2,8-diaza-spiro[4,5]dec-2-ene-3carboxylic acid ethyl-(2-methyl-allyl)-amide]		47%
O=C(NCc1ccccc1)C1=NOC2(CCN(C(=O)c3cccnc3Oc3ccccc3)CC2)C1 [Example 203, 8-(2-phenoxy-pyridine-3-carbonyl)-1-oxa-2,8-diaza-spiro[4,5]dec-2-ene-3-carboxylic acid benzylamide]		58%
O=C(Nc1ccccc1)C1=NOC2(CCN(C(=O)c3ccc(Br)cc3)CC2)C1 [Example 181, 8-(4-bromo-benzoyl)-1-oxa-2,8-diaza-spiro[4,5]dec-2-ene-3-acarboxylic cid phenylamide]	51%	
CCOC(=O)N1CCC(NC(=O)C2=NOC3(CCN(S(=O)(=O)c4cccc(C(F)(F)F)c4)CC3)C2)CC1 [Example 122, 4-{[8-(3-trifluoromethyl-benzenesulphonyl)-1-oxa-2,8-diaza-spiro[4,5]dec-2-ene-3 carbonyl]-amino}-piperidine-1-carboxylic acid ethyl ester]		41%
O=C(NCc1cccs1)C1=NOC2(CCN(S(=O)(=O)c3ccc([N+](=O)[O-])cc3)CC2)C1 [Example 38, 8-(4-nitro-benzenesulphonyl)-1-oxa-2,8-diaza-spiro[4,5]dec-2-ene-3-carboxylic acid (thiophen-2-ylmethyl)-amide]		44%
